{"source": "patent US8865967B2", "about": "(priority 2010, dated 2014)", "system": "Colletotrichum graminicola (CGR; isolate Carroll-IA-99)", "type": "cell-based", "conditions": "in words, variant after one round of DNA shuffling", "data": [{"substance": "Pp-PDF1-1C-7A4: Pp-PDF1 variant from first shuffling round (RVCEKPSKFFKGLCGSDRDCTNACRKEGLATGECQSKGFFNSVCVCKKPC; Synthetic sequence obtained from DNA shuffling of a plant sequence.)", "values": [{"measurement": "in vitro inhibitory activity against Colletotrichum graminicola", "value": "significantly improved"}]}]}
